# Measured values published in ChEMBL document CHEMBL3301555, “MMV Malaria Box screening in pLDH viability assay against Plasmodium falciparum gametocytes”.
# Test system: Plasmodium falciparum
# Assay: MMV: Measure of pLDH activity as indication of parasite viability. Gametocytogenesis of 3D7 Plasmodium falciparum strain was induced in vitro and asexual parasites were depleted with N-acetylglucosamine. Gametocytes were treated with dihydroartemisinin, epoxomicin, methylene blue, primaquine, puromycin or chloroquine in 96-well plates and the pLDH activity was evaluated using a modified Makler protocol. Mosquito infectivity was measured by the standard membrane feeding assay.
# Format: functional
# Set-up: concentration or dose not given beside the values
row,SMILES,Growth Inhibition [%]
1,CCN1CCCC1CNc1[nH]cnc2c3cc(Cl)ccc3nc1-2 (centres undefined),8.5536
2,COc1ccc(-c2c(C)nn3c(N)c(C#N)cnc23)cc1OC,32.2252
3,CSC1=NC(=Nc2c(C)cccc2C)C2(CCC(C(C)(C)C)CC2)N1c1ccc(Cl)cc1 (centres undefined),-2.9236
4,C[n+]1c2ccccc2nc2ccc(NCCO)cc21,16.8202
5,Cc1cc(C)cc(Nc2cc(C)nc3nc(C(F)(F)F)nn23)c1,-10.2568
6,O=C(NCC(c1ccsc1)N1CCCCCC1)c1ccc(C(F)(F)F)cc1 (centres undefined),-3.1098
7,COc1ccc(-c2cc3c(SCC(=O)Nc4cc(C(F)(F)F)ccc4Cl)nccn3n2)cc1,0.117
8,Cc1ccc(-c2cc3c(SCC(=O)Nc4cc(C(F)(F)F)ccc4Cl)nccn3n2)cc1,-10.2658
9,CCN(CC)CCNc1ncnc2c1[nH]c1ccc(Cl)cc12,10.0038
10,CCOC(=O)c1cnc2ccc(CC)cc2c1O,41.8585
11,Cc1ccc(-c2cc3c(nn2)-c2ccccc2C3=O)cc1,32.1362
12,CCN(CC)CCNc1ccnc2cc(Cl)ccc12,9.9324
13,CCCCCC(=O)N1c2ccccc2N=C2CC(c3ccc(OC)c(OC)c3)CC(O)=C2C1c1ccc(C(F)(F)F)cc1 (centres undefined),33.4948
14,Cc1cc(Nc2ccc3ccccc3c2)n2ncnc2n1,-5.4308
15,Cc1cc(NCCN2CCCCC2)c2ccc3ccccc3c2n1,17.8584
16,COc1ccc(-n2ccnc2SCC(=O)Nc2cc(C)ccc2C)c(OC)c1,2.884
17,CCN1CCN(Cc2ccc(NC(=O)c3cc4ccc5cccnc5c4[nH]3)cc2)CC1,4.9364
18,COc1ccc(-c2nc(NC(=O)CS(=O)(=O)c3ccc(F)cc3)sc2C)cc1,30.52
19,O=C(NCc1ccco1)C1CCN(S(=O)(=O)c2ccc(Cl)cc2)CC1,3.8942
20,O=C(O)C1Cc2c([nH]c3ccccc23)C(c2ccc(Cl)cc2Cl)N1 (centres undefined),8.0448
21,c1ccc(-c2ccc(-c3nc4ccccc4[nH]3)cc2)cc1,7.2118
22,CCC(C)NCC(O)(c1ccc(Cl)cc1)c1ccc(Cl)cc1 (centres undefined),29.3926
23,Cc1ccc(N2C(=O)C3C(C2=O)C2(c4ccccc4)C(=O)C3(c3ccccc3)C(c3ccccc3)=C2c2ccccc2)cc1 (centres undefined),4.6846
24,CCc1c(C)c(=N)c2ccccc2n1C.I,-4.4994
25,CCOC(=O)c1cn(CC)c2cc(N(C)CCc3ccc(OC)c(OC)c3)c(F)cc2c1=O,25.5006

row,SMILES,Growth Inhibition [%]
1,CCC(c1ccccc1)c1nn2c(-c3cccs3)nnc2s1 (centres undefined),4.041
2,CC(C)(C)c1ccc(O)c(CNC2CCCCC2)c1,30.335
3,O=[N+]([O-])c1ccc(C=NNc2nc3ccccc3[nH]2)cc1,-2.3354
4,CCOc1cc2c(cc1OCC)C(c1cc(OC)c(O)cc1Cl)NCC2 (centres undefined),24.0654
5,CC1CN(C(=O)c2sc3ccccc3c2Cl)CC(C)O1 (centres undefined),1.741
6,COCCNC(=O)c1ccc(OC2CCN(Cc3ccc(F)c(F)c3)CC2)c(Cl)c1,5.6964
7,CN(C)c1ccc(C=Cc2nc(=O)c3ccccc3o2)cc1,1.8448
8,COc1ccc(C2=C(c3ccc(OC)cc3)C3(c4ccccc4)C(=O)C2(c2ccccc2)C2C(=O)N(c4ccc(C)cc4)C(=O)C23)cc1 (centres undefined),-4.8036
9,CCOC(=O)c1c(NC(=O)c2ccccc2)sc2c(O)c(CN(CC)CC)ccc12,35.4934
10,CCOC(=O)C1=C(c2ccccc2)N=c2sc(=Cc3cc(C)n(-c4ccc(F)cc4)c3C)c(=O)n2C1c1cccc(OC)c1OC (centres undefined),-7.255
11,CCC1(C)CC(CCNCc2ccccc2O)(c2ccc(C)cc2)CCO1 (centres undefined),26.52
12,O=C(CCc1ccco1)NC1CCN(CC2(c3ccc(Cl)cc3)CCC2)CC1,18.8072
13,OC(CNC1CCCCC1)Cn1c2ccccc2c2ccccc21 (centres undefined),33.5526
14,Cc1cc(Nc2ccc(C)c(Cl)c2)n2nc(C(F)(F)F)nc2n1,1.818
15,COc1cccc(C=Cc2nc(=O)c3ccccc3o2)c1OC,2.1344
16,CCCN(CCC)CC(O)COc1ccccc1C(=O)Nc1ccccc1 (centres undefined),34.3502
17,Fc1ccc2[nH]c3c(NCCCN4CCOCC4)ncnc3c2c1,3.632
18,COc1ccc(C(=O)Nc2nonc2-c2ccc(OC)c(OC)c2)cc1Cl,7.9826
19,COCCN(C(=O)Cc1cccs1)C(C(=O)NCc1ccc(OC)cc1)c1ccc(C(C)C)cc1 (centres undefined),12.1412
20,COc1ccc(C=C2SC(=N)N(c3ccccc3OC)C2=O)cc1,26.57
21,COc1ccc(NC(=O)C2c3ccccc3C(=O)N(CC(C)C)C2c2cccs2)cc1Cl (centres undefined),14.3436
22,CCOC(=O)c1c(C)n(-c2ccc(Cl)cc2)c2ccc(OC(=O)C=Cc3ccccc3)cc12,-3.2706
23,COc1ccc2c(c1)OC(O)(C(F)(F)C(F)(F)F)CC2=O (centres undefined),11.5806
24,FC(F)(F)c1cccc(CNC2CCN(CCc3ccccc3)CC2)c1,12.4718
25,Oc1ccc(Cl)cc1CNc1nc2ccccc2[nH]1,5.249

row,SMILES,Growth Inhibition [%]
1,CCOc1cc(Cl)c(C(C)NC(=O)c2ccccc2)cc1OCC (centres undefined),3.3956
2,C=CC12CCN(CC1)C(C(O)c1ccnc3ccc(OC)cc13)C2.Cl (centres undefined),15.913
3,Cc1ccc(-c2cc3nc4c(c(O)n3n2)CCCC4)cc1,9.811
4,O=C(c1ccccc1F)N(Cc1ccc(Cl)cc1)c1ccccn1,9.2554
5,Cc1cccc(Nc2nc(N)c3ccccc3n2)c1.Cl,-0.3732
6,CCn1c(CN2CCN(Cc3ccccc3)CC2)nc2cc(NC(=O)c3cccs3)ccc21,17.812
7,COc1ccccc1CNC(=O)CCn1c(=O)[nH]c2ccccc2c1=O,-1.4414
8,O=C(Nc1ccc(Cl)cc1)N1CCN(c2ccc3nncn3n2)CC1,-0.5422
9,c1ccc2cc3c(Nc4ccc(N5CCOCC5)cc4)ccnc3cc2c1,12.7974
10,CCCCNCC(O)(c1ccc(Cl)cc1)c1ccc(Cl)cc1,33.502
11,Cc1cc(C)c2c(c1)OCN(Cc1ccccc1Cl)C2,32.69
12,COc1cc(OC)c(N(C)C(=O)c2cc3c(s2)-c2ccccc2S(=O)(=O)C3)cc1Cl,6.301
13,CCOC(=O)c1cn(CC)c2cc(N3CCCCC3)c(F)cc2c1=O,27.8444
14,CCCc1cc(O)c2c3c(c(=O)oc2c1)CN(C)CC3,31.2868
15,Cc1cc(NC(=O)C2c3ccccc3C(=O)N(CC(C)C)C2c2cccs2)no1 (centres undefined),21.7574
16,Cl.Oc1ccccc1CNCC12CC3CC(CC(C3)C1)C2,28.0055
17,CNCCCNc1ccnc2cc(Cl)ccc12,-4.352
18,COc1ccccc1CNC(=O)CCn1c(=O)[nH]c2ccsc2c1=O,-5.0228
19,COc1ccc(Br)cc1C1Nc2ccc3ccccc3c2C2=C1C(=O)CC(c1ccccc1)C2 (centres undefined),7.0344
20,Cc1cc(C=C2SC(=Nc3ccccc3)N(C3CCCC3)C2=O)c(C)n1-c1ccc(Cl)cc1,-0.992
21,CCn1c(SCC(=O)Nc2cc(C(F)(F)F)ccc2Cl)nc2ccccc2c1=O,-1.2952
22,Cc1ccc(Cn2c(N3CCC(C(=O)NCc4cccs4)CC3)nc3ccccc32)cc1,-1.5746
23,CC1CCN(Cc2ccc(NC(=O)c3cc4ccc5cccnc5c4[nH]3)cc2)CC1,2.4882
24,O=C(Nc1ccc(Cl)cc1C(=O)Nc1ccncc1)c1ccc(Cl)cc1Cl,4.844
25,CCOc1cccc2sc(N(Cc3cccnc3)C(=O)C3CCCCC3)nc12,1.8442

row,SMILES,Growth Inhibition [%]
1,CCOc1ccc(-c2nonc2NC(=O)c2cccc(C)c2)cc1OCC,30.014
2,CCc1ccc(Nc2cc(C)c3ccc(O)cc3n2)cc1.Cl,27.662
3,COc1ccc2c(=O)cc(C(Cl)(Cl)Cl)oc2c1,12.9182
4,CC(C)(C)CC(C)(C)NCC(O)COc1ccc2c(c1)CCC2.Cl (centres undefined),14.2274
5,CCOc1ccc(/C=C/c2nc(=O)c3ccccc3o2)cc1,7.7706
6,O=C(Nc1ccccc1O)c1ccc(-c2ccc(Cl)cc2Cl)o1,15.81
7,O=C(Nc1nc(-c2ccccn2)cs1)c1ccccc1Br,29.0858
8,CC(O)(c1ccc(Cl)cc1)C(CN1CCCCC1)c1ccccc1.Cl (centres undefined),18.9754
9,CCCCc1ccc(NS(=O)(=O)c2cc3c4c(c2)CCN4C(=O)CC3)cc1,-1.4264
10,CCOc1ccccc1CNC(=O)C1c2ccccc2C(=O)N(CC(C)C)C1c1cccs1 (centres undefined),7.24
11,COc1ccc(-c2nc3cc(Cc4ccc5[nH]c(-c6ccc(OC)cc6)nc5c4)ccc3[nH]2)cc1,4.7376
12,CCOC(=O)c1ccc2nc(-c3ccccc3)cc(O)c2c1,40.6125
13,Cc1cc(Nc2ccc(Cl)cc2)n2nc(C(F)(F)F)nc2n1,7.7522
14,COc1ccc(C(C)=O)cc1N1C(=O)C2C(C1=O)C1(c3ccccc3)C(=O)C2(c2ccccc2)C(c2ccc(C)cc2)=C1c1ccc(C)cc1 (centres undefined),-2.6232
15,CCCCCCOC(=O)C1=C(C)NC(=O)NC1c1ccccc1F (centres undefined),6.2916
16,COc1ccc(C2Sc3ccccc3N=C3C2=C(O)c2ccccc23)cc1 (centres undefined),-5.7444
17,Cc1ccc(N2C3c4ccccc4N(S(=O)(=O)c4ccc(C)cc4)C2c2ccccc2N3S(=O)(=O)c2ccc(C)cc2)cc1,-2.5084
18,CCCc1c(CC)c(=N)c2ccccc2n1C,4.7322
19,CCN(CC)CCCNc1nc(-c2ccc(Cl)cc2)nc2ccccc12,7.9964
20,Cc1ccc(Nc2nc(NCCO)c3ccccc3n2)cc1C,11.5812
21,CC1CCCCN1CCCNC(=O)c1ccc2c(c1)sc1nc(-c3ccc(F)cc3)cn12 (centres undefined),16.9994
22,CCOC(=O)c1cnc2c(C)cc(C)cc2c1Nc1ccc(OC)c(OC)c1,-11.2088
23,COc1ccc(NC(=O)C2c3ccccc3C(=O)N(CC(C)C)C2c2cccs2)cc1 (centres undefined),28.379
24,c1ccc(Cn2c(N=Nc3c(Nc4ccccc4)ccc4ccccc34)nc3ccccc32)cc1,28.0754
